Results: patent US20210317092A1 (BAYER PHARMA AKTIENGESELLSCHAFT, priority 2016, published 2021)

biological target: T1, human Bradykinin B1 receptor (Homo sapiens, UniProt P46663); test: Calcium flux Assay (FLIPR) with recombinant CHO-K1 cells expressing human Bradykinin B1 receptor, in presence (hB1 IC50) or absence (hB1 free IC50) of 0.1% BSA; type: cell-based; details: in absence of 0.1% BSA, read-out: hB1 free IC50
T1 construct: host or cells: CHO-K1
T1 sequence (P46663 1-353): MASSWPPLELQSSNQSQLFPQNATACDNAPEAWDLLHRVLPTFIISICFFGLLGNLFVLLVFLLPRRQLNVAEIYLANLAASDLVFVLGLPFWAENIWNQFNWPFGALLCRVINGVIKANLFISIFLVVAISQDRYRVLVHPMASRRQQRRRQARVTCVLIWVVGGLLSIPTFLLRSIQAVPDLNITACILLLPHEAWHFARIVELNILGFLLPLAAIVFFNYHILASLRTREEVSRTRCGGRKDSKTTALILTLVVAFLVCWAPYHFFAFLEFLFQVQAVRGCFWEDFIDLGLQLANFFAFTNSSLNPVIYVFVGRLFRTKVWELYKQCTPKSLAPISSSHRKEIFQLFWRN
Procedure: The potency to inhibit the Bradykinin B1 receptor was determined for the compounds of this invention in a cell-based fluorescent calcium-mobilisation assay. The assay measures the ability of test compounds to inhibit Bradykinin B1 receptor agonist-induced increase of intracellular free Ca^2+ in the cell line expressing Bradykinin B1 receptor. […] The change of the intracellular Ca^2+ concentration is monitored with a fluorescent plate reader FLIPR TETRA® (Molecular Devices).
Calcium flux Assays (FLIPR) with cells expressing human Bradykinin B1 receptor (hB1)
CHO-K1 cell line expressing human Bradykinin B1 receptor was purchased from Euroscreen (Gosselies, Belgium, with reference name hB1-D1). The cells were grown in Nutrient Mixture Ham's F12 (Sigma) containing 10% Foetal bovine serum (Sigma) and 400 μg/mL G418 (Sigma), 5 μg/mL puromycim (Sigma). […]
Cells were seeded in a volume of 50 μL in medium without antibiotics and incubated overnight in a humidified atmosphere with 5% CO2 at 37° C. […] The calcium indicator loaded cells were incubated at 37° C. for 2 hrs. Extracellular dye was then removed and each well was filled with 45 μL of assay buffer. Cell plates were kept in dark until used. Compound examples were assayed at 8 concentrations in triplicate. Serial 10-fold dilutions in 100% DMSO were made at a 100-times higher concentration than the final concentration, and then diluted 1:10 in assay buffer. 5 μL of each diluted compound was added to the well of cell plates (yielding final concentration with 1% DMSO), and incubated for 30 min at 28° C. before the addition of Bradykinin B1 receptor agonist on the FLIPR instrument.
A peptide antagonist Lys-(Des-Arg-Leu)-Bradykinin (Bachem, Brackley) at 20 µM was used to determine the full inhibition as control.
Peak fluorescence was used to determine the response to agonist obtained at each concentration of compound examples by the following equation:
% Response=100*(RFU(compound)−RFU(control))/(RFU(DMSO)−RFU(control)) • RFU means relative fluorescence units. • Control means full inhibition by the peptide antagonist Lys-(Des-Arg-Leu)-Bradykinin at 20 µM.
The response values were plotted against the logarithm of the compound concentrations. The compound examples were tested in triplicates per plate and mean values were plotted in Excel XLfit to determine IC50 values, percentage of maximal inhibition and the Hill slopes.

IC50 [nM] | Compound
25.9 | COc1ccc(-c2ccc(NC(=O)C3(c4ccc(F)c(F)c4)CC3)cc2-c2nnn[nH]2)cc1OC [Example 25, 1-(3,4-difluorophenyl)-N-[3′,4′-dimethoxy-2-(1H-tetrazol-5-yl)biphenyl-4-yl]cyclopropane-carboxamide]
284 | COc1cc(C2(C(=O)Nc3ccc(-c4ccc(OC)c(OC)c4)c(-c4nnn[nH]4)c3)CC2)ccc1F [Example 33, N-[3′,4′-dimethoxy-2-(1H-tetrazol-5-yl)biphenyl-4-yl]-1-(4-fluoro-3-methoxyphenyl) cyclopropane-carboxamide]
13.7 | COc1ccc(-c2ccc(NC(=O)C3(c4cccc(C(F)(F)F)c4)CC3)cc2-c2nnn[nH]2)cc1OC [Example 38, N-[3′,4′-dimethoxy-2-(1H-tetrazol-5-yl)biphenyl-4-yl]-1-[3-(trifluoromethyl)phenyl] cyclopropane-carboxamide]

same assay, conditions: in presence of 0.1% BSA, read-out: hB1 IC50

Compound | IC50 [nM]
COc1ccc(-c2ccc(NC(=O)C3(c4cccc(F)c4F)CC3)cc2-c2nnn[nH]2)cc1OC [Example 26, 1-(2,3-difluorophenyl)-N-[3′,4′-dimethoxy-2-(1H-tetrazol-5-yl)biphenyl-4-yl]cyclopropane carboxamide] | 91.7
COc1ccc(F)c(C2(C(=O)Nc3ccc(-c4ccc(OC)c(OC)c4)c(-c4nnn[nH]4)c3)CC2)c1 [Example 31, N-[3′,4′-dimethoxy-2-(1H-tetrazol-5-yl)biphenyl-4-yl]-1-(2-fluoro-5-methoxyphenyl) cyclopropane-carboxamide] | 212
COc1cc(F)cc(C2(C(=O)Nc3ccc(-c4ccc(OC)c(OC)c4)c(-c4nnn[nH]4)c3)CC2)c1 [Example 32] | 41.6
COc1ccc(-c2ccc(NC(=O)C3(C(F)(F)F)CC3)cc2-c2nnn[nH]2)cc1OC [Example 34, N-[3′,4′-dimethoxy-2-(1H-tetrazol-5-yl)biphenyl-4-yl]-1-(trifluoromethyl) cyclopropane-carboxamide] | 603
COc1ccc(-c2ccc(NC(=O)C3(c4ccccc4)CC3)cc2-c2nnn[nH]2)cc1OC [Example 35, N-[3′,4′-dimethoxy-2-(1H-tetrazol-5-yl)biphenyl-4-yl]-1-phenylcyclo-propane-carboxamide] | 213
COc1ccc(-c2ccc(NC(=O)C3(c4cccc(C)c4)CC3)cc2-c2nnn[nH]2)cc1OC [Example 39, N-[3′,4′-dimethoxy-2-(1H-tetrazol-5-yl)biphenyl-4-yl]-1-(3-methylphenyl) cyclopropane-carboxamide] | 80.3
CCCc1cccc(C2(C(=O)Nc3ccc(-c4ccc(OC)c(OC)c4)c(-c4nnn[nH]4)c3)CC2)c1 [Example 41, N-[3′,4′-dimethoxy-2-(1H-tetrazol-5-yl)biphenyl-4-yl]-1-(3-propylpheny) cyclopropane-carboxamide] | 92
COc1ccc(-c2ccc(NC(=O)C3(c4ccc(Cl)cc4)CC3)cc2-c2nnn[nH]2)cc1OC [Example 43, 1-(4-chlorophenyl)-N-[3′,4′-dimethoxy-2-(1H-tetrazol-5-yl)biphenyl-4-yl]cyclopropane carboxamide] | 14
COc1ccc(C2(C(=O)Nc3ccc(-c4ccc(OC)c(OC)c4)c(-c4nnn[nH]4)c3)CC2)cc1 [Example 47, N-[3′,4′-dimethoxy-2-(1H-tetrazol-5-yl)biphenyl-4-yl]-1-(4-methoxyphenyl) cyclopropane-carboxamide] | 180
COc1ccc(-c2ccc(NC(=O)C3(c4cccc(Cl)n4)CC3)cc2-c2nnn[nH]2)cc1OC [Example 50, 1-(6-chloropyridin-2-yl)-N-[3′,4′-dimethoxy-2-(1H-tetrazol-5-yl)biphenyl-4-yl]cyclopropane carboxamide] | 310
COc1ccc(-c2ccc(NC(=O)C3(c4ccc(Cl)nc4)CC3)cc2-c2nnn[nH]2)cc1OC [Example 51, 1-(6-Chloropyridin-3-yl)-N-[3′,4′-dimethoxy-2-(1H-tetrazol-5-yl)biphenyl-4-yl]cyclopropane carboxamide] | 342
COc1ccc(-c2ccc(NC(=O)C3(CC4CCCCC4)CC3)cc2-c2nnn[nH]2)cc1OC [Example 54, 1-(cyclohexyl-methyl)-N-[3′,4′-dimethoxy-2-(1H-tetrazol-5-yl)biphenyl-4-yl]cyclopropane carboxamide] | 544

Now from value to compound:

IC50 [nM] | Compound
57.4 | COc1ccc(-c2ccc(NC(=O)C3(c4ccc(F)c(F)c4)CC3)cc2-c2nnn[nH]2)cc1OC [Example 25, 1-(3,4-difluorophenyl)-N-[3′,4′-dimethoxy-2-(1H-tetrazol-5-yl)biphenyl-4-yl]cyclopropane-carboxamide]
51.5 | COc1ccc(-c2ccc(NC(=O)C3(c4cc(C(F)(F)F)ccc4F)CC3)cc2-c2nnn[nH]2)cc1OC [Example 27, N-[3′,4′-dimethoxy-2-(1H-tetrazol-5-yl)biphenyl-4-yl]-1-[2-fluoro-5-(trifluoromethyl)phenyl] cyclopropane-carboxamide]
138 | COc1ccc(-c2ccc(NC(=O)C3(c4ccc(F)cc4Cl)CC3)cc2-c2nnn[nH]2)cc1OC [Example 28, 1-(2-chloro-4-fluorophenyl)-N-[3′,4′-dimethoxy-2-(1H-tetrazol-5-yl)biphenyl-4-yl]cyclopropane carboxamide]
167 | COc1ccc(-c2ccc(NC(=O)C3(c4c(F)cccc4F)CC3)cc2-c2nnn[nH]2)cc1OC [Example 29, 1-(2,6-difluorophenyl)-N-[3′,4′-dimethoxy-2-(1H-tetrazol-5-yl)biphenyl-4-yl]cyclopropane carboxamide]
201 | COc1ccc(-c2ccc(NC(=O)C3(c4cc(F)ccc4Cl)CC3)cc2-c2nnn[nH]2)cc1OC [Example 30, 1-(2-chloro-5-fluorophenyl)-N-[3′,4′-dimethoxy-2-(1H-tetrazol-5-yl)biphenyl-4-yl]cyclopropane carboxamide]
238 | COc1cc(C2(C(=O)Nc3ccc(-c4ccc(OC)c(OC)c4)c(-c4nnn[nH]4)c3)CC2)ccc1F [Example 33, N-[3′,4′-dimethoxy-2-(1H-tetrazol-5-yl)biphenyl-4-yl]-1-(4-fluoro-3-methoxyphenyl) cyclopropane-carboxamide]
1830 | COc1ccc(-c2ccc(NC(=O)C3(c4ccccc4C)CC3)cc2-c2nnn[nH]2)cc1OC [Example 37, N-[3′,4′-dimethoxy-2-(1H-tetrazol-5-yl)biphenyl-4-yl]-1-(2-methylphenyl) cyclopropane-carboxamide]
38.8 | COc1ccc(-c2ccc(NC(=O)C3(c4cccc(C(F)(F)F)c4)CC3)cc2-c2nnn[nH]2)cc1OC [Example 38, N-[3′,4′-dimethoxy-2-(1H-tetrazol-5-yl)biphenyl-4-yl]-1-[3-(trifluoromethyl)phenyl] cyclopropane-carboxamide]
31.4 | CCc1cccc(C2(C(=O)Nc3ccc(-c4ccc(OC)c(OC)c4)c(-c4nnn[nH]4)c3)CC2)c1 [Example 40, N-[3′,4′-dimethoxy-2-(1H-tetrazol-5-yl)biphenyl-4-yl]-1-(3-ethylphenyl) cyclopropane-carboxamide]
746 | COc1ccc(-c2ccc(NC(=O)C3(c4cccc(C(C)(C)C)c4)CC3)cc2-c2nnn[nH]2)cc1OC [Example 42, 1-(3-tert-butylphenyl)-N-[3′,4′-dimethoxy-2-(1H-tetrazol-5-yl)biphenyl-4-yl]cyclopropane carboxamide]
49.8 | COc1ccc(-c2ccc(NC(=O)C3(c4ccc(C)cc4)CC3)cc2-c2nnn[nH]2)cc1OC [Example 45, N-[3′,4′-dimethoxy-2-(1H-tetrazol-5-yl)biphenyl-4-yl]-1-(4-methylphenyl) cyclopropane-carboxamide]
141 | COc1ccc(-c2ccc(NC(=O)C3(c4ccc(C(C)(C)C)cc4)CC3)cc2-c2nnn[nH]2)cc1OC [Example 46, 1-(4-tert-butylphenyl)-N-[3′,4′-dimethoxy-2-(1H-tetrazol-5-yl)biphenyl-4-yl]cyclopropane carboxamide]
213 | COc1ccc(-c2ccc(NC(=O)C3(c4cccc(F)c4Cl)CC3)cc2-c2nnn[nH]2)cc1OC [Example 49, 1-(2-chloro-3-fluorophenyl)-N-[3′,4′-dimethoxy-2-(1H-tetrazol-5-yl)biphenyl-4-yl]cyclopropane carboxamide]
514 | COc1ccc(-c2ccc(NC(=O)C3(Cc4ccccc4)CC3)cc2-c2nnn[nH]2)cc1OC [Example 53, 1-benzyl-N-[3′,4′-dimethoxy-2-(1H-tetrazol-5-yl)biphenyl-4-yl]cyclopropane carboxamide]
2060 | COc1ccc(-c2ccc(NC(=O)C3(CC(C)C)CC3)cc2-c2nnn[nH]2)cc1OC [Example 55, N-[3′,4′-dimethoxy-2-(1H-tetrazol-5-yl)biphenyl-4-yl]-1-isobutyl-cyclopropane-carboxamide]
36.6 | CCc1ccc(C2(C(=O)Nc3ccc(-c4ccc(OC)c(OC)c4)c(-c4nnn[nH]4)c3)CC2)cc1 [Example 57, N-[3′,4′-dimethoxy-2-(1H-tetrazol-5-yl)biphenyl-4-yl]-1-(4-ethylphenyl) cyclopropane-carboxamide]
